Experimental data from patent publication US20160304611A1, “COMBINATION THERAPY FOR TREATING ADULT PATIENTS WITH RELAPSED/REFRACTORY CD22+ B-CELL ACUTE LYMPHOBLASTIC LEUKEMIA” (Immunomedics, Inc., priority 2015, published 2016).
Values joined by “and” are separate entries in the source; they are usually repeats but may differ in a detail not shown here. Identical values can stand only once.

How the values were obtained:
[1] = system: CD22; assay: CD22 expression on blasts after treatment, flow cytometry with RFB4 and SHCL-1 anti-CD22 antibodies; assay type: cell-based, human; settings: non-responders and three patients with detectable MRD
Description: (§1) FIG. 1A. Minimal residual disease (MRD) evaluated by flow cytometry. All patients were monitored for CD22 expression before treatment and then for phenotypic MRD. Leukemic blasts were evaluated using a 8 colors panel including antibodies to CD45, CD19, CD10, CD34, CD38, CD58, CD20 and CD22. MRD was assessed, concomitantly to responses, between 4 and 6 weeks after beginning the salvage regimen using flow cytometry (FACS CANTO II, BD, Biosciences, San Jose, Calif.) performed on bone marrow samples. Two different anti-CD22 antibodies were used. The RFB4 antibody (PE conjugated, Invitrogen, Camarillo, Calif.) and epratuzumab bind competitively to CD22, meaning that in the presence of epratuzumab, RFB4 binding is blocked. […]
as §1, with “1B.” for “1A.”, “samples.” for “samples. Two different anti-CD22 antibodies were used. The RFB4 antibody (PE conjugated, Invitrogen, Camarillo, Calif.) and epratuzumab bind competitively to CD22, meaning that in the presence of epratuzumab, RFB4 binding is blocked.”

[2] = Toxicity evaluated according to the NCI-CTC criteria version 4; assay type: in vivo, human
Description: (§2) Responses were evaluated between 4 and 6 weeks post-salvage regimen. Patients in response (CR, CRi or PR) were allowed to receive a second cycle as consolidation. Toxicity was evaluated according to the NCI-CTC criteria version 4. Cytologic, phenotypic, karyotype and BCR-ABL1 (for Ph+B-ALL) molecular analyses were performed on blood samples and/or BM aspirates by standard methods.

[3] = system: Leukemic blasts; assay: Minimal residual disease (MRD) evaluated by flow cytometry on bone marrow samples; assay type: in vivo, human
Description: FIG. 1A. Minimal residual disease (MRD) evaluated by flow cytometry. All patients were monitored for CD22 expression before treatment and then for phenotypic MRD. Leukemic blasts were evaluated using a 8 colors panel including antibodies to CD45, CD19, CD10, CD34, CD38, CD58, CD20 and CD22. MRD was assessed, concomitantly to responses, between 4 and 6 weeks after beginning the salvage regimen using flow cytometry (FACS CANTO II, BD, Biosciences, San Jose, Calif.) performed on bone marrow samples. Two different anti-CD22 antibodies were used. The RFB4 antibody (PE conjugated, Invitrogen, Camarillo, Calif.) and epratuzumab bind competitively to CD22, meaning that in the presence of epratuzumab, RFB4 binding is blocked. By contrast, the SHCL-1 antibody (PE or PerCp-Cy5.5 conjugated, BD Biosciences, San Jose, Calif.) binds to a non-crossblocking epitope and can be used to assess the modulation of the CD22 antigen on the blasts surface. […] Case 1: An example of positive MRD. Leukemic blasts were both CD22-RFB4 and CD22-SHCL-1 positive before treatment. After treatment, the percentage of blasts is estimated at 0.05%.
FIG. 1B. Minimal residual disease (MRD) evaluated by flow cytometry. All patients were monitored for CD22 expression before treatment and then for phenotypic MRD. Leukemic blasts were evaluated using a 8 colors panel including antibodies to CD45, CD19, CD10, CD34, CD38, CD58, CD20 and CD22. MRD was assessed, concomitantly to responses, between 4 and 6 weeks after beginning the salvage regimen using flow cytometry (FACS CANTO II, BD, Biosciences, San Jose, Calif.) performed on bone marrow samples. Two different anti-CD22 antibodies were used. The RFB4 antibody (PE conjugated, Invitrogen, Camarillo, Calif.) and epratuzumab bind competitively to CD22, meaning that in the presence of epratuzumab, RFB4 binding is blocked. By contrast, the SHCL-1 antibody (PE or PerCp-Cy5.5 conjugated, BD Biosciences, San Jose, Calif.) binds to a non-crossblocking epitope and can be used to assess the modulation of the CD22 antigen on the blasts surface. […] Case 2: An example of “negative” MRD. Leukemic blasts (CD10/CD20 negative) are both CD22-RFB4 and CD22-SHCL-1 positive before treatment. After treatment, MRD was <10^−5.

[4] = system: relapsed/refractory CD22+B-ALL; assay: Prospective Phase 2 study of epratuzumab added to vincristine and dexamethasone (salvage chemoimmunotherapy); assay type: in vivo, human
Description: Here, we have evaluated the addition of epratuzumab (hLL2, 360 mg/m^2/d iv on days 1, 8, 15, and 22) to the combination of vincristine (2 mg iv, days 1, 8, 15 and 22) and dexamethasone (40 mg/d po, days 1, 8, 15, and 22) in patients >55 years old, with relapsed/refractory CD22+B-ALL. Dexamethasone was administered before epratuzumab administration+paracetamol 1 g as prophylaxis in order to prevent epratuzumab infusion reactions. Also, intrathecal injections of methotrexate 15 mg, aracytine 40 mg, and depomedrol 40 mg were recommended on days 1 and 8.
This prospective Phase 2 study was conducted at 6 French centers and was approved by the Brest ethical committee and the clinical trial department of the “Agence Française de Sécurité Sanitaire des Produits de Santé” (AFSSAPS). This trial is registered as NCT01219816. Epratuzumab was supplied by Immunomedics, Inc. (Morris Plains, N.J., USA). Written informed consent was obtained from each patient.
The main objective of the study was the CR rate defined by patients reaching CR+CR without platelets recovery (CRi). CR was defined as <5% marrow blasts, neutrophils >1×10^9/L, platelets >100×10^9/L and no evidence of extramedullary disease. CRi was defined similarly but without recovery of platelets counts. Partial response (PR) was defined as a decrease of >50% of blasts in the bone marrow.
as §2
Over a three year period, 26 patients were enrolled. One case was excluded because of progression before receiving the treatment, while 2 younger patients were inappropriately included (person in fourth relapse and a person with refractory second relapse). All the 25 treated patients were considered for analysis.

[5] = in subjects; cited from earlier work
[6] = combination with vincristine and dexamethasone, unclear etiology
[7] = combination with vincristine and dexamethasone, 25 treated patients
[8] = combination with vincristine and dexamethasone, of 25 treated patients
[9] = combination with vincristine and dexamethasone, six Ph+B-ALL patients

epratuzumab: anti-CD22 humanized antibody (Immunomedics, Inc.); given here with vincristine and dexamethasone
targeting of CD22 on residual blasts (RFB4 negative, SHCL-1 positive) [1]: persistent targeting of epratuzumab on blasts without loss of the CD22/epratuzumab complex from the cell surface | tolerability of salvage regimen ([2]; combination with vincristine and dexamethasone, large majority of grade 3/4 toxicities were expected pancytopenia): generally tolerated well | grade-3 renal toxicity, number of cases [2, 6]: One | grade-4 hypertriglyceridemia, number of cases [2, 6]: one | grade-3 allergic toxicity, number of cases ([2]; related to the first epratuzumab infusion): One | percentage of blasts after treatment ([3]; FIG. 1A, Case 1, example of positive MRD): 0.05% | MRD after treatment ([3]; FIG. 1B, Case 2, example of negative MRD): < 10^−5 | number of CR/CRi patients with undetectable MRD ([3]; combination with vincristine and dexamethasone, 5 CR/CRi patients): 2 | MRD evaluated by cytometry, individual responder patient ([3]; combination with vincristine and dexamethasone, CR/CRi patient with detectable MRD): 1.2% | MRD evaluated by cytometry, individual responder patients ([3]; combination with vincristine and dexamethasone, CR/CRi patients with detectable MRD): 5×10^−4 and 7×10^−3 | CR+CRi rate [4, 7]: 20% | PR rate [4, 7]: 20% | patients who died during treatment due to progression of the disease [4, 7]: Two | number of patients with CR [4, 8]: 4 | number of patients with CRi [4, 8]: 1 | number of patients with PR [4, 8]: 5 | median leukemia-free survival ([4]; combination with vincristine and dexamethasone, patients achieving CR/CRi, range 1-8): 3.8 months | number of patients with CR among Ph+B-ALL patients [4, 9]: 2 | number of patients with PR among Ph+B-ALL patients [4, 9]: 1 | 1-year OS ([4]; combination with vincristine and dexamethasone, whole cohort N=25, estimated): 13+7% | median overall survival (OS) ([4]; combination with vincristine and dexamethasone, whole cohort N=25, range 0.5-43): 4 months | overall response rate ([4]; epratuzumab 360 mg/m2/d iv + vincristine 2 mg iv + dexamethasone 40 mg/d po, days 1, 8, 15, 22, 25 treated patients, evaluated 4-6 weeks post-salvage): 40%

veltuzumab: humanized IgG1 antibody against CD20
immunogenicity compared with rituximab [5]: less immunogenic
